The values that follow come from paper PMC5665883, “Antithrombotic properties of JJ1, a potent and novel thrombin inhibitor” (Scientific Reports, 2017).

Marks after values point to notes of the source that are not given here.

Assay [1] has as its target T1, thrombin (Homo sapiens, UniProt P00734).
T1 construct: purchased Haematologic Technologies (Essex Junction, VT)
The experiment in a line: Enzyme-based assay of purchased virtual screening molecules, single dose. The assay is classed as biochemical. Particulars: single concentration of 50 μM. The text has this: Prior to the high-throughput virtual screening, we selected the best crystal structure for docking with DOCK 3.6[17] using the selected inhibitors and their physicochemically matched but topologically different decoys. […] Because the earlier enrichment of true positives is more important for high throughput SBVS, we used the value of LogAUC as a metric, selecting 2CF9-H[18] as the best structure. […] Besides, the enrichment at 1% (EF1) was 37.1. The values of LogAUC and EF1 were approximately two-fold higher than the averages (26.1 for LogAUC and 17.1 for EF1) (Figs 1 and S1). Some structures had higher AUC values than that of 2CF9-H, but the value of LogAUC was the highest for 2CF9-H (Fig. S1). The optimization necessitated the calculations of more than 2 million protein and ligand pairs. The high speed of DOCK 3.6 and the in-house Linux cluster system consisting of 128 cores efficiently managed the calculations in three days. Of the candidate molecules having the lowest scores in the high-throughput SBVS, we chose the molecules with desirable geometries and physicochemical properties by a simple manual and visual inspection. […] It is known that the scoring function of virtual screening itself is insufficient to capture such an abnormality. Table S1 and Fig. S2 list the top 40 molecules, which were selected through high-throughput SBVS; we purchased these molecules to measure enzymatic inhibitory activity.

A further assay deals with Trypsin. As to the kind of experiment: Chromogenic substrate assay, Ki (Dixon). The assay is classed as biochemical, human. The conditions noted are these: for Ki: Trypsin, mean ± SD (n = 5). The method, then:
(§1) Chromogenic substrate assays were performed using a Labsystems IEMS (Cergy Pontoise, France) microtiter plate reader. K i values were calculated according to the method of Dixon[65]. In each assay, the compound was tested at a minimum of seven concentrations, in duplicate, to obtain an inhibition curve. The following general procedures were adopted for each assay. In a 96-well microtiter plate, 25 μL of inhibitor solution or buffer was added to 50 μL of substrate. The enzyme solution (25 μL) was added just before the plate was placed in the microtiter plate reader for 1 h at 37 °C. The hydrolysis of the substrate yields p-nitroaniline, which was continuously monitored spectrophotometrically at 405 nm. The maximal initial reaction rates were calculated and expressed as millioptical density per minute.

Another assay deals with T2, Factor Xa (Homo sapiens, UniProt P00742).
T2 construct: thrombin versus trypsin, factor Xa, elastase, plasmin, protein Ca, streptokinase, tPA, and urokinase; purchased Haematologic Technologies (Essex Junction, VT)
As to the kind of experiment: Chromogenic substrate assay, Ki (Dixon). The assay is classed as biochemical. The conditions noted are these: for Ki: Factor Xa.

Another assay deals with T3, Plasmin (Homo sapiens, UniProt P00747).
T3 construct: thrombin versus trypsin, factor Xa, elastase, plasmin, protein Ca, streptokinase, tPA, and urokinase
As to the kind of experiment: Chromogenic substrate assay, Ki (Dixon). The assay is classed as biochemical. Particulars: for Ki: Plasmin.

The target in a further assay is T4, Protein Ca (Homo sapiens, UniProt P04070).
T4 construct: thrombin versus trypsin, factor Xa, elastase, plasmin, protein Ca, streptokinase, tPA, and urokinase
As to the kind of experiment: Chromogenic substrate assay, Ki (Dixon). The assay is classed as biochemical. Particulars: for Ki: Protein Ca.

Another assay concerns the target Streptokinase (Homo sapiens, UniProt P00747). The experiment in a line: Chromogenic substrate assay, Ki (Dixon). Particulars: for Ki: Streptokinase. The assay is classed as biochemical.
For another assay, the target named is tPA (Homo sapiens, UniProt P00750). The experiment in a line: Chromogenic substrate assay, Ki (Dixon). The assay is classed as biochemical. The conditions noted are these: for Ki: tPA.
Another assay concerns the target Urokinase (Homo sapiens, UniProt P00749). As to the kind of experiment: Chromogenic substrate assay, Ki (Dixon). The assay is classed as biochemical. Particulars: for Ki: Urokinase.
The test system of assay [2] is human plasma. As to the kind of experiment: In vitro aPTT clotting time. The conditions noted are these: in vitro, 5.0 μM. The assay is classed as biochemical. The protocol:
(§2) The aPTT and PT were determined using a Thrombotimer (Behnk Elektronik, Norderstedt, Germany) in accordance with the manufacturer’s instructions and as previously described. Briefly, citrated normal human plasma (90 μL) was mixed with 10 μL JJ1 and incubated for 1 min at 37 °C. Subsequently, the aPTT assay reagent (100 μL) was added, the plasma sample was incubated for an additional 1 min at 37 °C, 20 mM CaCl2 (100 μL) was added, and the clotting times were recorded. For the PT assays, citrated normal human plasma (90 μL) was mixed with 10 μL JJ1 stock solution and was incubated for 1 min at 37 °C. The PT assay reagent (200 μL), which had been pre-incubated for 10 min at 37 °C, was subsequently added and the clotting time was recorded. The PT results were expressed in seconds and as International Normalized Ratios (INR): INR = (PT sample/PT control)^ISI, where ISI = international sensitivity index. The aPTT results were also expressed in seconds. All experimental protocols (KNUH 2012-01-010) were approved by the Institutional Review Board of Kyungpook National University Hospitals (Daegu, Republic of Korea).

Assay [3] concerns human plasma. As to the kind of experiment: In vitro PT clotting time. The assay is classed as biochemical. The conditions noted are these: in vitro, 5.0 μM. The protocol: as §2
Assay [4] can be described thus: In vivo tail bleeding time. Also on record: species or system C57BL/6 mice. Particulars: mice, i.v. injection. The protocol: Tail bleeding times were measured by using the method of Dejana et al.[63],[64]. Briefly, C57BL/6 mice were fasted overnight prior to the experiments. One hour after the i.v. administration of JJ1, the tails of the mice were transected at 2 mm from their tips. The bleeding time was defined as the time elapsed until the bleeding stopped. Bleeding times exceeding 15 min were recorded as lasting for 15 min.

The nature of assay [5]: FeCl3-induced arterial thrombosis model. The assay is classed as in vivo, C57BL/6 mice. The conditions noted are these: mice, 150 μg/mouse. The method, then:
The FeCl3-induced thrombosis mouse model was established as previously described. Male C57BL/6 mice were fasted overnight and were administered JJ1 in DMSO by intravenous injection. Then, mice were anesthetized using 3% isoflurane (Forane®, Choongwae Pharma. Corp., Seoul, Korea) and injected intravenously with 0.1 mL 0.1% rhodamine 6 G (Sigma). A testicular artery (200 μm in diameter) was carefully exposed and a cotton thread (200 μm in diameter) saturated with 0.25 mol/L FeCl3 was applied to the adventitial surface. After 5 min, the cotton thread was removed, and the wound was flushed with saline solution. Thrombus formation was monitored at 35 °C by 3-dimensional imaging as previously described. The size and time of thrombus formation were monitored, and the findings were scored as follows: no thrombus, 0; small thrombus (50 μm × 75 μm), 1; medium-sized thrombus (100 μm × 150 μm), 2; large thrombus (200 μm × 300 μm), 3. The time from FeCl3-mediated endothelial injury to occlusion of the testicular artery by a large thrombus was measured.

The subject of assay [6] is neuropeptide Y receptor type 5. Also on record: method as in PMID 21948594. The conditions noted are these: not reported in publications; cited from earlier work.
Details of assay [7]: method as in PMID 21948594. The conditions noted are these: not reported in publications; cited from earlier work.
Another assay addresses T5, human α-thrombin (Homo sapiens, UniProt P00734).
T5 construct: purchased Haematologic Technologies (Essex Junction, VT)
As to the kind of experiment: Chromogenic substrate assay, Ki (Dixon). The assay is classed as biochemical.

A further assay concerns the target T6, Elastase (Homo sapiens, UniProt P08246).
T6 sequence (P08246 30-247): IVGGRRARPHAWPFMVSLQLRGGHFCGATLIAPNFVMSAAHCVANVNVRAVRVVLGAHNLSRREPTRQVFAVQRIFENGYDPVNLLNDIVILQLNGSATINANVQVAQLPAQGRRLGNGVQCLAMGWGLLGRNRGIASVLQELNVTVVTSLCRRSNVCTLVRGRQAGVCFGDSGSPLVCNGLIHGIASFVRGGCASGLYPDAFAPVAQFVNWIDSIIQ
As to the kind of experiment: Chromogenic substrate assay, Ki (Dixon). The assay is classed as biochemical. The conditions noted are these: K i Elastase/K i α-thrombin. The method, then:
as §1

The target in assay [8] is T1, thrombin. As to the kind of experiment: Thrombin activity assay (amidolytic activity, S-2238). The assay is classed as biochemical. Particulars: α-Thrombin, chromogenic substrate; read-out: IC50, inhibition of amidolytic activity of thrombin (converted).
Description: Following a 2-min incubation at 37 °C, thrombin solution (150 μL, 10 U/mL) was added, followed by incubation at 37 °C for 1 min. A solution of the thrombin substrate, S-2238, (150 μL, 1.5 mM) solution was subsequently added and the absorbance at 405 nm was monitored for 120 s using a spectrophotometer (TECAN, Männedorf, Switzerland).
The test system of assay [9] is human plasma. The experiment in a line: In vitro aPTT clotting time. The assay is classed as biochemical. The conditions noted are these: at the maximum antithrombotic dose.
Assay [10] deals with human plasma. As to the kind of experiment: In vitro PT clotting time. The assay is classed as biochemical. Particulars: at the maximum antithrombotic dose.

T4 sequence (P04070 212-450 limits assumed): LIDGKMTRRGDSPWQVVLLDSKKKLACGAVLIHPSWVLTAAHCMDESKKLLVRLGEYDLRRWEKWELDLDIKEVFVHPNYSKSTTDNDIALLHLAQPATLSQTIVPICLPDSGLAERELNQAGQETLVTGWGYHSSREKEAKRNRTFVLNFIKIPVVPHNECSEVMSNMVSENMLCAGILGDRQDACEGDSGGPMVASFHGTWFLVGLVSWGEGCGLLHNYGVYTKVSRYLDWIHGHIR
T4 sequence (P04070 43-197 limits assumed): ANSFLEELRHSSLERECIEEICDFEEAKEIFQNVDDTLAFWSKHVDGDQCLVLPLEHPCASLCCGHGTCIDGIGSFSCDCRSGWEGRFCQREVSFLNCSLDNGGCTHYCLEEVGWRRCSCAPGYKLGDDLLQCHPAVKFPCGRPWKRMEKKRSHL
T2 sequence (P00742 235-488 limits assumed): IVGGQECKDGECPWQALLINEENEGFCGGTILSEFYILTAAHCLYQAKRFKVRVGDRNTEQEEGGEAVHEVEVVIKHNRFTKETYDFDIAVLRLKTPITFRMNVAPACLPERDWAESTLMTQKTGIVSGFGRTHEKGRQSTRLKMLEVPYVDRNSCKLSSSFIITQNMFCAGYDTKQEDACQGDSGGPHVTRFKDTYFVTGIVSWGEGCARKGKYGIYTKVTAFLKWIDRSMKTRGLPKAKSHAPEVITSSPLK
T2 sequence (P00742 41-179 limits assumed): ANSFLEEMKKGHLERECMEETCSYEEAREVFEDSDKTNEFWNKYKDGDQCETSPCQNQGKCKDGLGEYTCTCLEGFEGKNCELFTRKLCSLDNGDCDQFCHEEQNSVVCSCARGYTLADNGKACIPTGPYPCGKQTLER
T3 sequence (P00747 581-810 limits assumed): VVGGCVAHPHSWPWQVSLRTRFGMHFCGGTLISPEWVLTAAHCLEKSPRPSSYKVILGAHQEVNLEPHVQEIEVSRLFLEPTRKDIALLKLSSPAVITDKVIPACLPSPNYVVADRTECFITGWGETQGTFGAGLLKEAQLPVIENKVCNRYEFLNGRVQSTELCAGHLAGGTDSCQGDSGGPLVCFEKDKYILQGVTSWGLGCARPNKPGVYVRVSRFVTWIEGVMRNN
T3 sequence (P00747 97-580 limits assumed): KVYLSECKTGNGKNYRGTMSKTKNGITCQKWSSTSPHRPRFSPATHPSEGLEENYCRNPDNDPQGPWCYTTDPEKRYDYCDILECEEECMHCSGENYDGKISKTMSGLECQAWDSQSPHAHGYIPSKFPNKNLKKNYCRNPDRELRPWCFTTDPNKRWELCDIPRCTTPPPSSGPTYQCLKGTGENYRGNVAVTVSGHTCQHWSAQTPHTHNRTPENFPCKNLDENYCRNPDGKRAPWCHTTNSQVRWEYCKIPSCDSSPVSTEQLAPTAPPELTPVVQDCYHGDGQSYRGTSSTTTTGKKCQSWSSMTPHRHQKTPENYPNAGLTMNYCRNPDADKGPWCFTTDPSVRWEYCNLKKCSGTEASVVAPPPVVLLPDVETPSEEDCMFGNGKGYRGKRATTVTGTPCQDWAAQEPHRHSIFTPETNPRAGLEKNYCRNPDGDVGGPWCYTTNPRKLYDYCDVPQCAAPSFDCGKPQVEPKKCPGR
Sequence of Streptokinase (P00747 581-810 limits assumed): as the sequence (P00747 581-810 limits assumed) above
Sequence of tPA (P00750 36-562): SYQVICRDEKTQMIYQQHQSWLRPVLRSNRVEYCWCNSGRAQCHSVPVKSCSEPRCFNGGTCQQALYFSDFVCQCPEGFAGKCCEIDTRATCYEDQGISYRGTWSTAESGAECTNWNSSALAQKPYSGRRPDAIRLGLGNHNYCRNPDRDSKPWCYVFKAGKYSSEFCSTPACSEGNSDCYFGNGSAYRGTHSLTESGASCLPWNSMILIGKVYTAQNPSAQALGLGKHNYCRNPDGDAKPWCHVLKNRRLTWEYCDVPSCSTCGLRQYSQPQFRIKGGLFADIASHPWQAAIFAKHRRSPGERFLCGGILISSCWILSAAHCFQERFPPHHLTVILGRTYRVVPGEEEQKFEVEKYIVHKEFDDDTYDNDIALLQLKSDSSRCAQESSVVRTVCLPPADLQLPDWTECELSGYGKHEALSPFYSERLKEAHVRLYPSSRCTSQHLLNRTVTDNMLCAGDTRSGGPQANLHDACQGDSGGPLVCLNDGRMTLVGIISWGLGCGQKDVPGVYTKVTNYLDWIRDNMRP

As for `CCN(c1cccc(C)c1)S(=O)(=O)c1cc([N+](=O)[O-])ccc1C` [ZINC04991109], the “Degree of inhibition in the enzyme-based assay” value at thrombin [1] was “inhibitory effects”.
The Ki is the equilibrium dissociation constant of an inhibitor or competing ligand from its target. As to `CC1CNc2c(cccc2S(=O)(=O)N[C@@H](CCCNC(=N)N)C(=O)N2CC[C@@H](C)C[C@@H]2C(=O)O)C1` (stereo partly drawn) [Argatroban], the Ki is 4200 ± 500 nM at Trypsin; over 250 µM at Factor Xa; over 250000 nM at Plasmin; over 250000 nM on Protein Ca; over 250000 nM on Streptokinase; over 250000 nM on tPA. On Urokinase, this molecule gave an inhibition constant (Ki) of over 250000 nM. The molecule further gave an aPTT in the assay on human plasma [2] of 61.4 ± 0.8 s. For the same molecule, in the assay on human plasma [3], the PT came to 27.4 ± 0.7 s. Further, the “PT (INR)” value in the assay on human plasma [3] is 7.40* INR. The molecule also showed a Tail bleeding time in assay [4] (5.08 μg/mouse) of 62.2 ± 0.8 s. In assay [5] (60 min after FeCl3-treatment, score 0-3), this molecule had a Thrombus size score of 1.15 ± 0.12. In assay [5] (FeCl3-induced thrombosis), the “Time to large thrombus formation” value is given as 61.2 ± 5.1 min.
As to `COc1ccc(C(=O)NCc2ccco2)cc1S(=O)(=O)N1CCCCC1` [ZINC09063750], the “Degree of inhibition in the enzyme-based assay” value at thrombin [1] was “inhibitory effects”.
For the molecule `c1ccc(Nc2nc(NC3CCCCC3)nc3ccccc23)cc1` [CHEMBL17914], the “Activity linked in ChEMBL” value in assay [6] is reported as “linked with the inhibition of neuropeptide Y receptor type 5”.
For `Oc1ccccc1Nc1nc(NC2CCCC2)c2ccccc2n1` [CHEMBL581623], the “Activity linked in ChEMBL” value in assay [7] is on record as “antimalarial effects”.
For orientation: IC50 means the concentration at which inhibition is half-maximal. For the molecule `CN[C@H](Cc1ccccc1)C(=O)N1CCC[C@H]1C(=O)N[C@H](C=O)CCCN=C(N)N` [Efegatran], the Selectivity ratio on human α-thrombin (K i enzyme/K i α-thrombin) was 1; in the assay with Trypsin (K i Trypsin/K i α-thrombin), 0.65; on Elastase, >14,000; at Factor Xa, 5411; at Plasmin, 28; on Protein Ca, 70. Besides, the results for the Selectivity ratio on Streptokinase, at tPA and at Urokinase were 82, 88 and 147, respectively. Also, the Ki on human α-thrombin (mean ± SD (n = 5)) was 17 ± 0.3 nM; at Trypsin, 11 ± 4.1 nM; at Factor Xa, 92 ± 9 µM; at Plasmin, 480 ± 40 nM; at Protein Ca, 1200 ± 150 nM; at Streptokinase, 1400 ± 110 nM. Besides, the Ki on tPA was found to be 1500 ± 300 nM; at Urokinase it was 2500 ± 300 nM. For the same molecule, at thrombin [8], the IC50 was 25 nM. The same molecule registered an aPTT in the assay with human plasma [2] of 44.2 ± 0.6 s. The same molecule gave a PT in the assay on human plasma [3] of 19.2 ± 0.4 s. The “PT (INR)” value with human plasma [3] was 3.15* INR. Further, the Tail bleeding time in [4] (4.17 μg/mouse) is 47.4 ± 1.1 s. Besides, the “Prolongation of aPTT” value in the assay with human plasma [9] came to 1.86 fold. In addition, the “Prolongation of PT” value in the assay with human plasma [10] is given as 1.61 fold.
With `c1ccc2c(NC3CCCC3)nc(Nc3ccc4c(c3)OCO4)nc2c1` [CHEMBL578118], in assay [7], the “Activity linked in ChEMBL” value is on record as “antimalarial effects”.
